“Also recorded” adds a separate entry of the source. Read-outs that look alike come from different tables or passages of the source.
Key:
[1] = Intestinal microbiota stability, rat; assay type: in vitro ADME; conditions: Sprague-Dawley
Method: Plasma from mice, rats, rabbits, and humans was obtained from blood after centrifugation at 3000 r/min for 10 min. Simulated gastric fluid (SGF, pH = 1, containing pepsin) and simulated intestinal fluid (SIF, pH = 6.8, containing trypsin) were configured previously in the experiments. SD rats and mice were collected, and after removing the mucus layer from the small intestine and colon, 20 times the volume of liquid bacterial culture medium was added. An intestinal microbiota suspension was obtained after anaerobic cultivation on a shaking table at 37 °C for 12 h. In the aforementioned systems, E3 was added at a final concentration of 1 μmol/L at 37 °C for different incubation times (0, 10, 20, 30, 60, 120, and 240 min). In liver metabolic stability assays, E3 was incubated with liver microsomes or liver homogenate from mice or rats for 60 min at 37 °C. The stop solution, 5 ng/mL tolbutamide (internal standard, IS) in acetonitrile, was added to stop the metabolic process. Post-centrifugation (18,000× g, 10 min, 4 °C), supernatants were subjected to liquid chromatography–tandem mass spectrometry (LC–MS/MS). Analyte-to-IS peak area ratios quantified residual percentages via Equation (2):Remaining% = (E3peak area/ISpeak area at different time)/(E3peak area/ISpeak area at 0 min) × 100%.(2)

[2] = Subacute oral toxicity test in mice; assay type: in vivo; conditions: male, mouse, in vivo, 1000 mg/kg, oral, 30 d, read-out: no observed adverse effect level (NOAEL)
Method: The subacute oral toxicity test was performed according to “Guidance on Repeated Dose Toxicity Study for Pharmaceuticals” (2014). […] Eighteen male mice were evenly divided into two groups. Mice of the control group were orally administered with solvent (0.5% CMC-Na). Another group was orally administered with E3 1000 mg/kg. The solvent or E3 was administered once a day for 30 continuous days and withdrawn for 14 d for recovery. After the 30-day treatment, 12 mice (6/group) were chosen at random and sacrificed for necropsy.
During the study, the clinical symptoms, morbidity, and mortality of mice were observed twice a day at the side of the cage. Changes in appearance, behavior, appetite, gait, secretions, and excretions of the rats were meticulously documented. The body weights were measured before the start of the experiment, and the weights were measured every 2 d thereafter. Echocardiography was performed and evaluated every 10 d. Under anesthesia, blood samples were taken before the autopsy for hematological and clinical biochemistry analysis by an automated hematology analyzer (HEMAVET 950FS, Drew Scientific, TX, USA) and an automated biochemical analyzer (BS-180, Mindray Diagnostics, Shenzhen, China). The following organs were weighed: heart, liver, kidney, spleen, lung, thymus gland, testis, and brain. Furthermore, the corresponding organ/body weight ratio was computed. A comprehensive histopathological analysis was performed on vital tissues and organs.

[3] = Pharmacokinetic study in rats; assay type: in vivo, rat
Method: Male SD rats were allowed free access to food in a controlled environment of 22 ± 2 °C, with a humidity level of 55% ± 5%, and maintained under a 12 h light/dark cycle. In the oral administration groups, E3 was delivered in a 0.5% CMC-Na solution at a dosage of 4 mg/kg body weight. Blood samples were collected by the orbital venous plexus and kept on ice at the following time points: 0.083, 0.167, 0.25, 0.5, 1, 2, 4, 6, 8, 12, and 24 h. E3 formulations (DMSO:PEG400:saline = 10:30:60, v/v) were administered via tail vein (1 mg/kg). Serial blood sampling (0.033, 0.083, 0.167, 0.333, 0.5, 1, 2, 4, 8, 12, and 24 h post-dose) yielded plasma via centrifugation (3000 r/min, 10 min, 4 °C), stored at −80 °C until PK analysis using DAS 3.2.8 (noncompartmental analysis model).
(§1) The analyte E3 and IS were dissolved in DMSO to generate the stock solutions. The working calibration of E3 was gradient-diluted with MeOH/H2O (1:1, v/v). Three microliters of working solutions were spiked with 27 μL of the blank rat plasma to establish the calibration standards. The final concentrations of the standard samples were 1, 2, 5, 10, 50, 250, 500, and 1000 ng/mL. Quality control samples (3/100/800 ng/mL) were prepared using identical protein precipitation protocols. Briefly, 30 μL calibrators and biological matrices were mixed with 450 μL stop solution, vortexed (5 min), and centrifuged (18,000× g, 10 min, 4 °C). Processed supernatants (2 μL injection volume) were subjected to LC-MS/MS analysis.
(§2) The analysis was conducted by an Xevo TQ-S Cronos Triple Quadrupole Mass Spectrometer coupled with an ACQUITY UPLC (Waters Corp, Milford, MA, USA). The chromatographic separation was conducted in an ACQUITY UPLC BEH C18 1.7 µm column (Waters, Milford, MA, USA) at 40 °C with a flow rate of 0.4 mL/min. The mobile phases were 0.1% (v/v) formic acid in water (A) and pure ACN (B). […] An electrospray ionization (ESI) source with multiple–reaction monitoring (MRM) in positive–ion mode was employed to quantify the analytes with the transitions of m/z 385.11 > 244.19 and m/z 271.136 > 91.01 for E3 and IS, respectively. The optimized cone voltage is 10 V and 24 V for E3 and IS, respectively. The collision energy is 12 V and 32 V for E3 and IS, respectively. MassLynx v4.2 (Waters Corp, Milford, MA, USA) was used for data acquisition and analysis.

[4] = Tissue distribution study in rats; assay type: in vivo, rat
Method: Male SD rats were randomly divided into four groups and received a single oral dose of E3 at 4 mg/kg. Blood and tissue samples (i.e., heart, liver, kidney, spleen, lung, brain, testis, skin, muscle, leg bone, stomach, small intestine, and colon) were collected at 0.5 h, 2 h, 6 h, and 24 h after dosing. Tissues were perfused with cold saline, blotted, weighed, and homogenized (10 vol/wt ice-cold H2O; T10 homogenizer, IKA, Staufen, Germany). The rats’ right shin bone was decalcified in methanol (4 °C, 12 h). Processed samples (−80 °C storage) underwent LC-MS/MS analysis as described.
as §1, §2

[5] = male, SD, rat, plasma, iv, 1 mg/kg, single i.v. 1 mg/kg, n = 5
[6] = male, SD, rat, plasma, iv, single i.v. 1 mg/kg, n = 5
[7] = male, SD, rat, plasma, po, 4 mg/kg, single p.o. 4 mg/kg, n = 5
[8] = male, SD, rat, plasma, po, single p.o. 4 mg/kg, n = 5

Compound `CC(=O)c1ccc(C(=O)Nc2cccc(NS(=O)(=O)c3ccccc3)c2)o1` [Compound E3, 5-acetyl-N-(3-(phenylsulfonamido)phenyl)furan-2-carboxamide] has a remaining at 1 μmol/L ([1]; colon microbiota suspension, n=3, read-out: Rat colon microbiota (remaining %)) of 82.3%, a remaining at 1 μmol/L ([1]; small intestine microbiota suspension, n=3, read-out: Rat small intestine microbiota (remaining %)) of 87.4% and an NOAEL at 30 d [2] of 1000 mg/kg/day. The “plasma concentration within 24 h” value ([3]; after intragastric gavage administration) was “less than 2 ng/mL”, the MRT [3, 5] was 1.1 h and the half-life [3, 5] was 1.9 h. For the same compound, the AUC(0-inf) [3, 6] was 1120 ng·h/mL, the AUC(0-t) [3, 6] was 1120 ng·h/mL and the Cmax ([3]; male, SD, rat, plasma, iv, single i.v. 1 mg/kg, n = 5, read-out: C max) was 2540 ng/mL. For the same compound, the bioavailability ([3]; male, SD, rat, plasma, oral, p.o. 4 mg/kg vs i.v. 1 mg/kg, read-out: F (oral bioavailability)) was 21.1%, the MRT [3, 7] was ~6.1 h and the Tmax [3, 7] was ≤ 2 h. It also gave a half-life [3, 7] of ~4.9 h, a Cmax ([3]; male, SD, rat, plasma, po, p.o. 4 mg/kg, conversion of 170.3 ng/mL, read-out: Cmax in molar units) of 443 nM and an AUC(0-inf) [3, 8] of 943 ng·h/mL. For the same compound, the AUC(0-t) [3, 8] was 919 ng·h/mL, the CL/F [3, 8] was 70 mL/min/kg and the Cmax ([3]; male, SD, rat, plasma, po, single p.o. 4 mg/kg, n = 5, read-out: C max) was 170 ng/mL. For the same compound, the “V (V/F row; V for the i.v. group)” value ([3]; single i.v. 1 mg/kg, n = 5) was 2.5 L/kg, the V/F ([3]; single p.o. 4 mg/kg, n = 5) was 30.1 L/kg and the “permeability to the blood–brain barrier (BBB) and blood–testis barrier (BTB)” value ([4]; inferred from tissue distribution) was “lower permeability; also recorded: low permeability”. The “concentration in kidney relative to other tissues” value ([4]; single oral 4 mg/kg) was “highest concentration”, the “distribution in the brain, testis” value ([4]; single oral 4 mg/kg) was “relatively low distribution” and the “time of peak drug concentration in most tissues” value ([4]; single oral 4 mg/kg, post-administration) was 2 h.

— paper PMC12024912, “Druggability Studies of Benzene Sulfonamide Substituted Diarylamide (E3) as a Novel Diuretic” (Biomedicines, 2025)
